Measured values as given in patent US9244346B2, “Negative-type photosensitive resin composition, pattern forming method, cured film, insulating film, color filter, and display device” (TOKYO OHKA KOGYO CO., LTD., priority 2011, dated 2016).

Legend:
[1] = solubility to propylene glycol monomethyl ether acetate (PM) and cyclohexanone (AN); conditions: for Solubility to Solvent AN: cyclohexanone; for Solubility to Solvent PM: propylene glycol monomethyl ether acetate
[2] = wavelength (λmax) at absorption spectrum peak and gram absorption coefficient at λmax; format: physicochemical; conditions: for λmax: wavelength at absorption spectrum peak

Compound	Solubility to Solvent AN [1]	Solubility to Solvent PM [1]	Gram Absorption Coefficient at λmax [2]	λmax [2]
COc1ccc(/C=C/C(=O)N2CCCCC2)c([N+](=O)[O-])c1 [Compound 13]	>50 mass %	>50 mass %	87	313 nm
COc1ccc(/C=C/C(=O)N2CCOCC2)cc1 [Compound 4]			79	310 nm
COc1ccc(/C=C/C(=O)n2ccnc2)cc1[N+](=O)[O-] [Compound 6]			86	344 nm
COc1ccc(/C=C/C(=O)N2CCCCC2)cc1[N+](=O)[O-] [Compound 14]	>50 mass %	>50 mass %	94	322 nm
COc1ccccc1/C=C/C(=O)N1CCCCC1 [Comparative Compound 2, reference compound]	<1 mass %	<1 mass %	76	275 nm
COc1ccc(C=CC(=O)n2ccnc2)c(O)c1 [compound 9, reference compound]	>50 mass %	>50 mass %	65	290 nm
CCN(CC)C(=O)/C(C)=C/c1ccc(OC)c([N+](=O)[O-])c1 [Compound 12]	>50 mass %	>50 mass %	127	361 nm
COc1ccc(/C=C/C(=O)Nc2ccccc2)cc1 [Compound 2]	>50 mass %	>50 mass %	117	317 nm
CCN(CC)C(=O)C=Cc1ccc(OC)cc1O [compound 7, reference compound]	>50 mass %	>50 mass %	72	304 nm
COc1ccc(/C=C(\C)C(=O)N2CCCCC2)cc1[N+](=O)[O-] [Compound 16]	>50 mass %	>50 mass %	105	323 nm
COc1ccc(C=CC(=O)N2CCCCC2)cc1 [Compound 17]	>50 mass %	>50 mass %	74	281 nm
COc1ccc(/C=C(\C)C(=O)n2ccnc2)cc1[N+](=O)[O-] [Compound 8]			98	351 nm
CCN(CC)C(=O)C(C)=Cc1ccc(OC)cc1 [Compound 19]	>50 mass %	>50 mass %	86	318 nm
CCN(CC)C(=O)/C=C/c1ccc(OC)cc1[N+](=O)[O-] [Compound 9]	>50 mass %	>50 mass %	102	342 nm
COc1ccc(/C=C/C(=O)n2ccnc2)c([N+](=O)[O-])c1 [Compound 5]			121	332 nm
CCN(CC)C(=O)/C=C/c1ccc(OC)c([N+](=O)[O-])c1 [Compound 10]	>50 mass %	>50 mass %	119	354 nm
COc1ccc(/C=C(\C)C(=O)n2ccnc2)c([N+](=O)[O-])c1 [Compound 7]	>50 mass %	>50 mass %	137	339 nm
COc1ccc(/C=C(\C)C(=O)N2CCCCC2)c([N+](=O)[O-])c1 [Compound 15]	>50 mass %	>50 mass %	92	313 nm
CCN(CC)C(=O)/C(C)=C/c1ccc(OC)cc1[N+](=O)[O-] [Compound 11]	>50 mass %	>50 mass %	107	349 nm
COc1ccc(C=C(C)C(=O)n2ccnc2)cc1 [Compound 18]			84	301 nm
CCN(CC)C(=O)/C=C/c1ccc(OC)cc1 [Compound 1]	>50 mass %	>50 mass %	90	309 nm
COc1ccc(/C=C/C(=O)n2ccnc2)cc1 [Compound 3]	>50 mass %	>50 mass %	81	293 nm
CCO[Si](C)(CCCN)OCC [Comparative Compound 6, reference compound]	>50 mass %	>50 mass %	143	212 nm
